Measurements reported in PubChem BioAssay (NCI).
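Step 1: Grow cells in 96-well plates. Step 2: Expose to compound for 48 hours at 5 concentrations. Step 3: Interpolate endpoints linearly; if unreached, use highest concentration. GI50 = concentration required for 50% inhibition of growth. At the TGI there is no net growth.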

Experiments:
Test in all cases: DTP human tumour cell line panel, 48 h
[1] = system: BT-549 breast
[2] = system: NCI-H522 lung
[3] = system: HOP-92 NSCLC
[4] = system: HCC-2998 colon
[5] = system: UACC-62 melanoma
[6] = system: NCI-H23 lung
[7] = system: HT29 colon
[8] = system: CAKI-1 renal
[9] = system: OVCAR-4 ovarian
[10] = system: SN12C renal
[11] = system: DU-145 prostate
[12] = system: UACC-257 melanoma
[13] = system: TK-10 renal
[14] = system: SK-OV-3 ovarian
[15] = system: SK-MEL-5 melanoma
[16] = system: HCT-15 colon
[17] = system: SR leukemia
[18] = system: 786-0 renal
[19] = system: COLO 205 colon
[20] = system: MDA-MB-435
[21] = system: SF-295 CNS
[22] = system: NCI/ADR-RES ovarian
[23] = system: HCT-116 colon
[24] = system: K-562 leukemia
[25] = system: SF-268 CNS
[26] = system: NCI-H460 lung
[27] = system: A549 NSCLC
[28] = system: HOP-62 NSCLC
[29] = system: SK-MEL-2 melanoma
[30] = system: MOLT-4 leukemia
[31] = system: EKVX NSCLC
[32] = system: MDA-MB-231 breast
[33] = system: OVCAR-8 ovarian
[34] = system: OVCAR-5 ovarian
[35] = system: KM12 colon
[36] = system: ACHN renal
[37] = system: UO-31 renal
[38] = system: M14 melanoma
[39] = system: PC-3 prostate
[40] = system: RXF 393 renal
[41] = system: SK-MEL-28 melanoma
[42] = system: T-47D breast
[43] = system: U251 CNS
[44] = system: CCRF-CEM leukemia
[45] = system: LOX IMVI melanoma
[46] = system: OVCAR-3 ovarian
[47] = system: HL-60(TB) leukemia
[48] = system: SNB-19 CNS
[49] = system: NCI-H226 lung
[50] = system: SW-620 colon

`CCC(C)CN=C(N)c1ccc(N2CCN(c3ccc(C(N)=NCC(C)CC)cc3)CC2)cc1` (stereo not given) showed a GI50 [1] of 2.91 µM, a TGI [1] of 12.5 µM and a GI50 [2] of 6.49 µM. For the same compound, the TGI [2] was 27.2 µM, the GI50 [3] was 0.29 µM and the TGI [3] was 8.03 µM. For the same compound, the GI50 [4] was 11.5 µM, the TGI [4] was greater than 100 µM and the GI50 [5] was 11.4 µM. It also gave a TGI [5] of 28.1 µM, a GI50 [6] of 5.2 µM and a TGI [6] of 36.3 µM. The GI50 [7] was 11 µM, the TGI [7] was greater than 100 µM and the GI50 [8] was 30 µM. For the same compound, the TGI [8] was 92.3 µM, the GI50 [9] was 19.3 µM and the TGI [9] was greater than 100 µM. The GI50 [10] was 2.3 µM, the TGI [10] was 8.89 µM and the GI50 [11] was 5.72 µM. It also gave a TGI [11] greater than 100 µM, a GI50 [12] of 20.3 µM and a TGI [12] greater than 100 µM. For the same compound, the GI50 [13] was 15.1 µM, the TGI [13] was greater than 100 µM and the GI50 [14] was 23.1 µM. The TGI [14] was 79.8 µM, the GI50 [15] was 1.71 µM and the TGI [15] was 12.3 µM. The GI50 [16] was 26.5 µM, the TGI [16] was greater than 100 µM and the GI50 [17] was 0.443 µM. For the same compound, the TGI [17] was 3.01 µM, the GI50 [18] was 7.33 µM and the TGI [18] was 87.3 µM. It also gave a GI50 [19] of 23.4 µM, a TGI [19] greater than 100 µM and a GI50 [20] of 5.48 µM. For the same compound, the TGI [20] was 28.5 µM, the GI50 [21] was 2.9 µM and the TGI [21] was 17.4 µM. The GI50 [22] was 85.6 µM, the TGI [22] was greater than 100 µM and the GI50 [23] was 8.51 µM. It also gave a TGI [23] of 60 µM, a GI50 [24] of 2.84 µM and a TGI [24] of 14 µM. It also gave a GI50 [25] of 3.93 µM, a TGI [25] of 17.4 µM and a GI50 [26] of 3.34 µM. For the same compound, the TGI [26] was 19.1 µM, the GI50 [27] was 10.5 µM and the TGI [27] was greater than 100 µM. The GI50 [28] was 4.51 µM, the TGI [28] was 24.2 µM and the GI50 [29] was 8.67 µM. It also gave a TGI [29] of 45.3 µM, a GI50 [30] of 14.2 µM and a TGI [30] of 38.4 µM. For the same compound, the GI50 [31] was 0.955 µM, the TGI [31] was 23.3 µM and the GI50 [32] was 6.19 µM. For the same compound, the TGI [32] was 37.3 µM, the GI50 [33] was 5.58 µM and the TGI [33] was greater than 100 µM. The GI50 [34] was 33 µM, the TGI [34] was greater than 100 µM and the GI50 [35] was 7.25 µM. It also gave a TGI [35] of 52 µM, a GI50 [36] of 48 µM and a TGI [36] greater than 100 µM. The GI50 [37] was 79.5 µM, the TGI [37] was greater than 100 µM and the GI50 [38] was 8.64 µM. For the same compound, the TGI [38] was 43.5 µM, the GI50 [39] was 7.56 µM and the TGI [39] was 69.3 µM. For the same compound, the GI50 [40] was 15.9 µM, the TGI [40] was 96.7 µM and the GI50 [41] was 16.9 µM. For the same compound, the TGI [41] was 41.8 µM, the GI50 [42] was 18.5 µM and the TGI [42] was greater than 100 µM. For the same compound, the GI50 [43] was 3.69 µM, the TGI [43] was 19.4 µM and the GI50 [44] was 6.09 µM. The TGI [44] was 40.7 µM, the GI50 [45] was 12.1 µM and the TGI [45] was 41.8 µM. It also gave a GI50 [46] of 3.45 µM, a TGI [46] of 35.4 µM and a GI50 [47] of 10.9 µM. The TGI [47] was 39.9 µM, the GI50 [48] was 12.9 µM and the TGI [48] was 69.2 µM. It also gave a GI50 [49] of 6.54 µM, a TGI [49] of 31.3 µM and a GI50 [50] of 17 µM. It also gave a TGI [50] greater than 100 µM.
